Assay results as given in ChEMBL document CHEMBL1201862, “PubChem BioAssay data set” (2004).
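A five-concentration, 48-hour dose response in 96-well plates underlies each endpoint, interpolated linearly between surrounding concentrations. GI50 = concentration required for 50% inhibition of growth.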 The source made the active and inactive calls. No stated cut-off is given here; in the data, active = GI50 up to about 1.1 µM and inactive = higher.

Columns and labels:
Experiment in all cases: NCI tumour cell line growth inhibition, 48 h
786-0 = test system: 786-0
COLO 205 = test system: COLO 205
HL-60 = test system: HL-60
HT-29 = test system: HT-29
IGROV-1 = test system: IGROV-1
K562 = test system: K562
LOX IMVI = test system: LOX IMVI
NCI-H460 = test system: NCI-H460
RPMI-8226 = test system: RPMI-8226
SF-295 = test system: SF-295
SF-539 = test system: SF-539
SNB-19 = test system: SNB-19
UACC-257 = test system: UACC-257
UACC-62 = test system: UACC-62
A498 = test system: A498

Measured: GI50

CC#CC#C/C=C1\C=CC2(OC=CC2O)O1 (stereo not given)
inactive: 786-0 > 16 µM | COLO 205 3.28 µM | HL-60 > 14.1 µM | HT-29 7.91 µM | IGROV-1 > 16.7 µM | K562 11.6 µM | LOX IMVI 11.9 µM | NCI-H460 > 23.3 µM | RPMI-8226 13.4 µM | SF-295 > 23.3 µM | SF-539 > 14.9 µM | SNB-19 > 23.3 µM | UACC-257 16 µM | UACC-62 9.59 µM

Cc1cc2c3ccccc3n3c2c2c1OC1(C)CCC(C2C1)C3(C)C (stereo not given)
inactive: 786-0 > 25 µM | COLO 205 > 25 µM | HL-60 > 25 µM | HT-29 > 25 µM | IGROV-1 > 25 µM | K562 > 25 µM | LOX IMVI > 25 µM | NCI-H460 > 25 µM | RPMI-8226 > 25 µM | SF-539 > 25 µM | SNB-19 > 25 µM | UACC-62 > 25 µM

C(=C1/CCCCC([n+]2ccccc2)=N1)/c1ccccc1
inactive: 786-0 > 100 µM | COLO 205 > 100 µM | HL-60 > 100 µM | HT-29 > 100 µM | K562 > 100 µM | LOX IMVI > 100 µM | NCI-H460 > 100 µM | RPMI-8226 > 100 µM | SF-295 > 100 µM | SF-539 > 100 µM | UACC-62 > 100 µM

CCOCc1cc(=O)c2c(OC)cc3c(c2o1)CCC(C)(C)O3
inactive: 786-0 > 100 µM | HL-60 > 100 µM | HT-29 > 100 µM | IGROV-1 > 100 µM | K562 > 100 µM | LOX IMVI > 100 µM | NCI-H460 > 100 µM | SF-295 > 100 µM | SF-539 > 100 µM | UACC-257 > 100 µM | UACC-62 > 100 µM

CC(=O)O/N=C(/C)c1ccccc1O
inactive: 786-0 > 100 µM | COLO 205 > 100 µM | HL-60 > 100 µM | HT-29 > 100 µM | IGROV-1 > 100 µM | K562 > 100 µM | LOX IMVI > 100 µM | NCI-H460 > 100 µM | RPMI-8226 > 100 µM | SF-295 > 100 µM | SF-539 > 100 µM | SNB-19 > 100 µM | UACC-257 > 100 µM | UACC-62 > 100 µM

COc1ccc2cccc(C(=N)c3ccc(C)c4c3CCC4)c2c1
inactive: 786-0 10.2 µM | A498 2.14 µM | COLO 205 11.9 µM | HL-60 2.67 µM | HT-29 4.02 µM | IGROV-1 6.15 µM | K562 2.92 µM | LOX IMVI 11.7 µM | NCI-H460 4.3 µM | SF-295 5.7 µM | SNB-19 11.2 µM | UACC-257 4.89 µM | UACC-62 4.18 µM
